Where “and” joins values, the source holds several entries; their conditions need not be identical. Equal values may be shown once.
What was measured:
[1] = system: SW780 (bladder, urothelial carcinoma; MTAP-Deleted); experiment: In vitro cell viability assay (CellTiter-Glo, 9 days), SW780; format: cell-based; settings: Homo sapiens, SW780, 216 h, 9-day treatment
Experimental: Some Compounds of the Disclosure were tested in Calu-6 (Vendor: ATCC; Cat #HTB-56; Description: lung, adenocarcinoma), LU99 (Vendor: JCRB; Cat #JCRB0080; Description: lung, giant cell carcinoma), SW780 (Vendor: ATCC; Cat #CRL-2169; Description: bladder, urothelial carcinoma), and BxPC-3 (Vendor: ATCC; Cat #CRL-1687; Description: pancreas, adenocarcinoma) cellular viability assays according to the general protocol. Seeded cells into 96-well plate and incubated overnight. Seeded an additional 10 wells per cell line in an additional 96-well plate for assessing Time Zero luminescence and incubated overnight. To treatment plates, added compounds into each well using Tecan D300e dispenser (nine three-fold dilutions starting at […]) and incubated for 9 days. Time Zero (no compound treatment, luminescence assessed on day 1) and 9-day treatment (luminescence assessed on day 10) plates were assessed using the same CellTiter-Glo® substrate protocol. Thawed CellTiter-Glo® Buffer and lyophilized CellTiter-Glo® substrate and equilibrated to room temperature prior to use. Transferred 100 ml CellTiter-Glo® Buffer into amber bottle containing CellTiter-Glo® substrate to reconstitute the lyophilized enzyme/substrate mixture. For Time Zero and 9-day treatment plates, removed all plating media. Added 100 μl fresh media/well. Added 100 μl CellTiter-Glo® Reagent per well. Mixed contents for 10 min on an orbital shaker to lyse cells. Recorded luminescence with Perkin Elmer Envision 2105 machine. Analyzed the data with GraphPad software.

[2] = Hepatocyte stability assay, rat; format: in vitro ADME; settings: Sprague-Dawley Rat
Experimental: (§1) BioreclamationIVT (Baltimore, MD) provided the cryopreserved hepatocytes, hepatocyte thawing (HT) medium, and Krebs-Henseleit buffer (KHB) medium. The stock solution concentration was 1 M in DMSO and was then diluted further in acetonitrile/water (1:1 v/v). All other chemicals were purchased from Sigma-Aldrich (St. Louis, MO) or Thermo Fisher Scientific (Waltham, MA).
(§2) The quench solution used to stop reactions in the hepatocyte incubations was comprised of 100% (v/v) acetonitrile. Internal Standard/Quench (IS/Q) solution used to stop reactions with the positive control also contained 200 nM Labetalol.
(§3) Metabolic Stability in Cryopreserved Hepatocytes: Test compounds, or the positive control metabolic substrate, was incubated in suspensions of cryopreserved hepatocytes at a final concentration of 1 μM. Vials containing cryopreserved hepatocytes were removed from liquid nitrogen and immediately immersed in a 37° C. water bath. The vials were swirled gently until the contents had thawed. They were then immediately emptied into 48 mL of pre-warmed thawing medium in a 50 mL conical tube. Cells remaining in the vial were re-suspended with 1.0 mL of pre-warmed thawing medium and added to the conical tube. The tube was capped and then gently inverted several times to re-suspend the hepatocytes. The cell suspension was centrifuged at 500×g for 10 minutes at room temperature and the supernatant discarded. The cell pellet was loosened by gently swirling the centrifuge tube. Non-supplemented KHB medium was added to obtain the appropriate target cell density. The viabilities of all cell preparations were ≥85%, assessed by Trypan blue dye exclusion.
(§4) For incubations, aliquots of hepatocyte suspension (250 μL containing a cell concentration of 2×10^6 cells/mL) were added to 250 μL of 2 μM substrate (test compound or positive control) in supplemented KHB in duplicate wells in a 24-well plate. Final concentration in the incubations were 1×10^6 cells/mL and 1 μM substrate. A cell-free control incubation (KHB only) was also included. The incubations were carried out with gentle shaking in a 37° C. incubator under a humid atmosphere of 95% air/5% CO2 (v/v). Aliquots (100 μL) were removed after 0, 1, 3, and 6 hours and added to 200 μL quenching solution. The samples were then placed on a shaker for 10 min followed by centrifugation at 3000×g for 20 min. The supernatant was transferred to a new plate and diluted with 100 μL of water to reduce the organic content and then placed on a shaker for 10 mins. Samples were injected and analyzed with methods described below.
(§5) Liquid Chromatography: Quantification of positive control and test compound was performed by analyte/internal standard peak area ratios (PAR) measured on a Thermo Scientific™ Q Exactive™ Hybrid Quadrupole-Orbitrap Mass Spectrometer MS/MS with an electrospray interface operating in positive ion mode. The mass spectrometer was coupled to a Dionex Ultimate® 3000 HPLC system. Samples (10 μL aliquots) were injected with a Leap Technologies HTC PAL autosampler. For positive control, the column used was a Thermo Scientific™ Hypersil GOLD™ HPLC column ([…], 50×2.1 mm). Mobile phase A consisted of 95% (v/v) water, 5% (v/v) acetonitrile, and contained 0.1% (v/v) formic acid (FA). Mobile phase B consisted of 95% (v/v) acetonitrile, 5% (v/v) water, and contained 0.1% (v/v) FA. Elution was achieved, at a flow rate of 0.5 mL/min, by a series of linear gradients: initial condition was 5% B at 0 min, isocratic for 20 seconds; then linear gradient to 95% B over 90 seconds, followed by isocratic for 60 seconds at 95% B, and re-equilibrated to initial conditions over 70 seconds.
(§6) Metabolic stabilities of positive control and test compound were determined by measuring the rates of disappearance of the parent with time by determining the % of parent remaining at time t (Ct) {Obach 1997}.
(§7) Data (% of parent remaining) were plotted on a semi-log scale and fitted using an exponential fit: […]

[3] = Hepatocyte stability assay, dog; format: in vitro ADME; settings: Beagle Dog
Experimental: as §1, §2, §3, §4, §5, §6, §7

## Nc1nc2cnc(C(=O)N3CCC[C@@H]4Oc5cc(OC(F)(F)F)cc(F)c5[C@@H]43)cc2n2cncc12 (single isomer, unassigned) [Fg-55]
[1]
  GI50: 23 nM
[2]
  Predicted Hepatocyte CL: 15.5 mL/min/kg
[3]
  Predicted Hepatocyte CL: 12.5 mL/min/kg

## Cc1ncc2c(N)nc3cnc(C(=O)N4CCC[C@@H]5Oc6cc(OC(F)(F)F)ccc6[C@@H]54)cc3n12 [Ff-340, (4-amino-1-methylimidazo[1,5-a]pyrido[3,4-e]pyrazin-8-yl)((4aS,9bS)-7-(trifluoromethoxy)-3,4,4a,9b-tetrahydrobenzofuro[3,2-b]pyridin-1(2H)-yl)methanone]
[1]
  GI50: 23 nM
[2]
  Predicted Hepatocyte CL: 19.8 mL/min/kg
[3]
  Predicted Hepatocyte CL: 12 mL/min/kg

## Nc1nc2cnc(C(=O)N3CCC[C@@H]4Oc5cc(OC(F)(F)F)ccc5[C@@H]43)cc2n2cncc12 [Ff-341, (4-aminoimidazo[1,5-a]pyrido[3,4-e]pyrazin-8-yl)((4aS,9bS)-7-(trifluoromethoxy)-3,4,4a,9b-tetrahydrobenzofuro[3,2-b]pyridin-1(2H)-yl)methanone]
[1]
  GI50: 10 nM
[2]
  Predicted Hepatocyte CL: 16 mL/min/kg
[3]
  Predicted Hepatocyte CL: 12.3 mL/min/kg

## C[C@H]1CN(C(=O)c2cc3c(cc2F)nc(N)c2cncn23)[C@H]2c3ccc(C(F)(F)F)cc3C[C@H]2O1 (single isomer, unassigned) [Ff-81]
[1]
  GI50: 25 nM
[2]
  Predicted Hepatocyte CL: 18.3 mL/min/kg
[3]
  Predicted Hepatocyte CL: 3.5 mL/min/kg

## Nc1nc2ccc(C(=O)N3CCC[C@@H]4Oc5cc(C(F)(F)F)ccc5[C@@H]43)cc2n2cncc12 [Ff-111, (4-aminoimidazo[1,5-a]quinoxalin-8-yl)((4aS,9bS)-7-(trifluoromethyl)-3,4,4a,9b-tetrahydrobenzofuro[3,2-b]pyridin-1(2H)-yl)methanone]
[1]
  GI50: 11 nM
[2]
  Predicted Hepatocyte CL: 27.8 mL/min/kg
[3]
  Predicted Hepatocyte CL: 12.3 mL/min/kg

## Nc1nc2cnc(C(=O)N3CCC[C@@H]4Oc5cc(C(F)(F)F)ccc5[C@@H]43)cc2n2cncc12 [Ff-110, (4-aminoimidazo[1,5-a]pyrido[3,4-e]pyrazin-8-yl)((4aS,9bS)-7-(trifluoromethyl)-3,4,4a,9b-tetrahydrobenzofuro[3,2-b]pyridin-1(2H)-yl)methanone]
[1]
  GI50: 120 nM

## Nc1nc2cnc(C(=O)N3CCC[C@@H]4Oc5cc(C(F)(F)F)cc(F)c5[C@@H]43)cc2n2cncc12 (single isomer, unassigned) [Fg-53]
[1]
  GI50: 9 nM
[2]
  Predicted Hepatocyte CL: 18.7 mL/min/kg
[3]
  Predicted Hepatocyte CL: 10.2 mL/min/kg

## Nc1nc2cc(F)c(C(=O)N3CCC[C@@H]4Oc5cc(C(F)(F)F)ccc5[C@@H]43)cc2n2cncc12 [Ff-104, (4-amino-7-fluoroimidazo[1,5-a]quinoxalin-8-yl)((4aS,9bS)-7-(trifluoromethyl)-3,4,4a,9b-tetrahydrobenzofuro[3,2-b]pyridin-1(2H)-yl)methanone]
[1]
  GI50: 5 nM
[2]
  Predicted Hepatocyte CL: 27.7 mL/min/kg and 20.7 mL/min/kg
[3]
  Predicted Hepatocyte CL: 6.33 mL/min/kg and 11.2 mL/min/kg

## Cc1ncn2c1c(N)nc1cnc(C(=O)N3CCC[C@@H]4Oc5cc(C(F)(F)F)ccc5[C@@H]43)cc12 [Ff-499, (4-amino-3-methylimidazo[1,5-a]pyrido[3,4-e]pyrazin-8-yl)((4aS,9bS)-7-(trifluoromethyl)-3,4,4a,9b-tetrahydrobenzofuro[3,2-b]pyridin-1(2H)-yl)methanone]
[2]
  Predicted Hepatocyte CL: 37.2 mL/min/kg
[3]
  Predicted Hepatocyte CL: 15.3 mL/min/kg

## Nc1nc2cnc(C(=O)N3CC4(CC4)C[C@@H]4Oc5cc(C(F)(F)F)ccc5[C@@H]43)cc2n2cncc12 [Ff-648, (4-aminoimidazo[1,5-a]pyrido[3,4-e]pyrazin-8-yl)((4aS,9bS)-7-(trifluoromethyl)-4a,9b-dihydro-2H-spiro[benzofuro[3,2-b]pyridine-3,1′-cyclopropan]-1(4H)-yl)methanone]
[1]
  GI50: 12 nM

## C[C@@H]1CN(C(=O)c2cc3c(cc2F)nc(N)c2cncn23)[C@H]2c3ccc(OC(F)(F)F)cc3C[C@H]2O1 (single isomer, unassigned) [Ff-183]
[1]
  GI50: 19 nM
